Test results reported in publication PMC8333062, “Chemical tools for epichaperome-mediated interactome dysfunctions of the central nervous system” (Nature Communications, 2021).
Read-outs that look alike come from different tables or passages of the source.

Experiments:
[1] = target: HSP90 pools in JNPL3 (AD transgenic) mouse brain lysate; experiment: Fluorescence polarization (FP) competitive binding, cy3B-GM; details: read-out: FP relative affinity
[2] = for PAMPA_BBB: PAMPA; for PAMPA-BBB: pH 7.4
[3] = displacement of cy3B-GM, 24 h, 4 °C, mean±SD, n=3

CC(C)NCCCn1c(Sc2cc3c(cc2Br)OCO3)nc2c(N)ncnc21 [Compound 3]
EC50 [1, 3]: 122 ± 7 nM

CCN(CCCn1c(Cc2cc3c(cc2I)OCO3)nc2c(N)nc(F)nc21)C(C)C [Compound 61]
PAMPA_BBB [2]: 7.5±0.2 | PAMPA-BBB [2]: 7.5±0.2 10-6 cms-1 | EC50 [1, 3]: 30 ± 13 nM

CC(C)NCCCn1c(Cc2cc(I)c3c(c2)OCO3)nc2c(N)nc(F)nc21 [Compound 17]
EC50 [1, 3]: 85 ± 10 nM

CC(C)NCCCn1c(Cc2cc(Br)c3c(c2)OCO3)nc2c(N)nc(F)nc21 [Compound 18]
EC50 [1, 3]: 191 ± 6 nM

CC(C)N(CCO)CCCn1c(Cc2cc3c(cc2I)OCO3)nc2c(N)nc(F)nc21 [Compound 69]
PAMPA_BBB [2]: 1.1±0.1 | PAMPA-BBB [2]: 1.1±0.1 10-6 cms-1 | EC50 [1]: 61 ± 2 nM

CC(C)CNCCn1c(Sc2cc3c(cc2I)OCO3)nc2c(N)ncnc21 [Compound 84]
PAMPA_BBB [2]: 8.9±0.5 | PAMPA-BBB [2]: 8.9±0.5 10-6 cms-1 | EC50 [1, 3]: 14 ± 2 nM

CC(C)NCCCn1c(Sc2cc3ccccc3cc2I)nc2c(N)ncnc21 [Compound 58]
PAMPA_BBB [2]: 10.8±0.2 | PAMPA-BBB [2]: 10.8±0.2 10-6 cms-1 | EC50 [1, 3]: 97 ± 3 nM

CC(C)NCCCn1c(Sc2cc3c(cc2C#N)OCO3)nc2c(N)ncnc21 [Compound 5]
EC50 [1, 3]: 285 ± 13 nM

CC(C)N(C)CCCn1c(Cc2cc3c(cc2I)OCO3)nc2c(N)nc(F)nc21 [Compound 60]
PAMPA_BBB [2]: 5.8±1.3 | PAMPA-BBB [2]: 5.8±1.3 10-6 cms-1 | EC50 [1, 3]: 39 ± 2 nM

C=CCN(C)CCCn1c(Cc2cc3c(cc2I)OCO3)nc2c(N)nc(F)nc21 [Compound 65]
PAMPA_BBB [2]: 11.3±1.9 | PAMPA-BBB [2]: 11.3±1.9 10-6 cms-1 | EC50 [1, 3]: 44 ± 4 nM

C=CCc1cc2c(cc1Sc1nc3c(N)ncnc3n1CCCNC(C)C)OCO2 [Compound 8]
PAMPA_BBB [2]: 6.7±0.7 | PAMPA-BBB [2]: 6.7±0.7 10-6 cms-1 | EC50 [1, 3]: 122 ± 4 nM

CCCN(CCCn1c(Cc2cc3c(cc2I)OCO3)nc2c(N)nc(F)nc21)CC1CC1 [Compound 63]
PAMPA_BBB [2]: 8.4±2.1 | PAMPA-BBB [2]: 8.4±2.1 10-6 cms-1 | EC50 [1, 3]: 43 ± 4 nM

CC(C)NCCCn1c(Sc2cc3c(cc2-c2ccccc2)OCO3)nc2c(N)ncnc21 [Compound 9]
PAMPA_BBB [2]: 9.9±0.5 | PAMPA-BBB [2]: 9.9±0.5 10-6 cms-1 | EC50 [1, 3]: 270 ± 10 nM

CC(=O)c1cc2c(cc1Sc1nc3c(N)ncnc3n1CCCNC(C)C)OCO2 [Compound 6]
EC50 [1, 3]: 103 ± 7 nM

CC(C)NCCCn1c(Sc2cc3c(cc2-c2ccc(N(C)C)cc2)OCO3)nc2c(N)ncnc21 [Compound 12]
PAMPA_BBB [2]: 9.2±0.3 | PAMPA-BBB [2]: 9.2±0.3 10-6 cms-1 | EC50 [1, 3]: 1390 nM

CC(C)NCCCn1c(Sc2cc3c(cc2I)OCCCO3)nc2c(N)ncnc21 [Compound 35]
EC50 [1, 3]: 232 ± 10 nM

Nc1nc(F)nc2c1nc(Cc1cc3c(cc1I)OCO3)n2CCCN(CCO)C1CCCCC1 [Compound 70]
PAMPA_BBB [2]: 8.5±0.1 | PAMPA-BBB [2]: 8.5±0.1 10-6 cms-1 | EC50 [1, 3]: 24 ± 2 nM

CC1CN1CCCn1c(Cc2cc3c(cc2I)OCO3)nc2c(N)nc(F)nc21 (stereo not shown) [Compound 66]
PAMPA_BBB [2]: 5.8±1.5 | PAMPA-BBB [2]: 5.8±1.5 10-6 cms-1 | EC50 [1]: 105 ± 5 nM

CC(C)NCCCn1c(Sc2cc3c(cc2-c2ccc(C(C)(C)C)cc2)OCO3)nc2c(N)ncnc21 [Compound 11]
PAMPA_BBB [2]: 12.5±0.6 | PAMPA-BBB [2]: 12.5±0.6 10-6 cms-1 | EC50 [1, 3]: 2600 nM

Nc1nc(F)nc2c1nc(Cc1cc3c(cc1I)OCO3)n2CCCN1CCOCC1 [Compound 68]
PAMPA_BBB [2]: 6.3±1.1 | PAMPA-BBB [2]: 6.3±1.1 10-6 cms-1 | EC50 [1]: 202 ± 7 nM

CCN(C)CCCn1c(Cc2cc3c(cc2I)OCO3)nc2c(N)nc(F)nc21 [Compound 62]
PAMPA_BBB [2]: 7.5±0.1 | PAMPA-BBB [2]: 7.5±0.1 10-6 cms-1 | EC50 [1, 3]: 45 ± 19 nM

Nc1nc(F)nc2c1nc(Cc1cc3c(cc1I)OCO3)n2CCCN1CCN(CCO)CC1 [Compound 71]
PAMPA_BBB [2]: 4.7±0.5 | PAMPA-BBB [2]: 4.7±0.5 10-6 cms-1 | EC50 [1]: 200 ± 5 nM

CC(C)NCCCn1c(Cc2cc3c(cc2C#N)OCO3)nc2c(N)nc(F)nc21 [Compound 20]
EC50 [1, 3]: 219 ± 19 nM
